Test: Oral bioavailability in CD IGS rat at 10 mg/kg measured after 26 hrs
Format: ADME, organism-based
Conditions: in vivo

Row | Compound | bioavailability
1 | NC(=O)c1sc2ncnc(-c3cccc(NC(=O)Nc4ccc(C(F)(F)F)cc4)c3)c2c1N | 0.3%
2 | COc1cncc(-c2nc(NC(C)(C)CO)nc3sc(C(N)=O)c(N)c23)c1 | 17%
